{"source": "patent US4228150A", "about": "“Method of inhibiting dextransucrase and oral compositions for use therein” (Iowa State University Research Foundation, Inc., priority 1979, dated 1980)", "test_system": "dextransucrase", "experiment": "Inhibition of dextransucrase synthesis of dextran from 14C-sucrose (radioactive polysaccharide on paper, slope versus control)", "assay_type": "biochemical, bacteria", "details": "compared to 6,1',6'-trifluorosucrose", "experimental": "Dextransucrase was obtained from the culture supernatant of bacteria. Various amounts (6 to 30 mg/ml) of the fluorosucrose mixture prepared as in Example I were added to the enzyme (3 units/ml)* and allowed to incubate 10 minutes. At the end of this time, the enzyme was assayed by adding 1/2 volume of 0.3 M ^14 C-(U)-sucrose to the fluorosucrose-enzyme solution; equal aliquots were withdrawn with time and spotted onto 1.5×1.5 cm squares of Whatman 3 MM paper, which were immediately dropped into 20 ml anhydrous methanol. Three 200 ml volumes of methanol were added in 15 min. intervals. The papers were then removed, dried, and the radioactivity determined in a liquid scintillation spectrometer. The amount of radioactivity (polysaccharide formed) was plotted against the reaction time with sucrose (time of aliquot removed). The slopes of the resulting lines were determined and the percent inhibition calculated from the ratio of the slopes of the inhibited reactions to the slope of a control in which no inhibitor was added.\n*Units are in terms of International Enzyme Units, that is, the amount of enzyme that will incorporate one micromole of monomer into polysaccharide per minute under conditions of optimum temperature and pH."}
{"smiles": "O[C@@H]1[C@@H](O)[C@@H](O[C@]2(CCl)O[C@H](CCl)[C@@H](O)[C@@H]2O)O[C@H](CCl)[C@H]1O", "note": "[6,1',6'-trichlorosucrose]", "values": [{"measurement": "effectiveness as an inhibitor for dextran", "result": "relatively ineffective"}]}
